Our source for the EC50 values is US10118902B2 (Sanford Burnham Prebys Medical Discovery Institute, priority 2014, dated 2018).

Each structure is given as a SMILES string.

The assay deals with neurotensin receptor 1 (NTR1) (Homo sapiens (Human), UniProt P30989). As to the kind of experiment: NTR1 dose response, high-content imaging beta-arrestin-GFP assay in NTR1-U2OS cells. The format is cell-based. The note with it: read-out: EC50. An excerpt: The cell lines utilized in the high-content imaging assays, which include the NTR1-, NTR2-, and GPR35-U2OS osteosarcomas, were obtained from the laboratory of Dr. Lawrence Barak at the Duke University Medical Center. The media used in the culture of the cell lines, as well as the assays themselves, consisted of Minimum Essential Medium (15-010-CM) and L-glutamine (25-005-CL) from Cellgro/Mediatech (Manassas, Va.), fetal bovine serum (SH30396.03) from Hyclone (Logan, Utah), penicillin-streptomycin solution (PS-20) from Omega Scientific in Tarzana, Calif., G418 (ant-gn-1) from Invivogen (San Diego, Calif.), and zeocin (R250-01) from Invitrogen (Carlsbad, Calif.). Cell lines were cultured in T225 tissue culture flasks (431082) supplied by Corning (Corning, N.Y.). Additional reagents employed include Dulbecco's Phosphate-Buffered Saline (DPBS) (21-031CV) from Cellgro/Mediatech, Trypsin-EDTA 0.05% (25300) from Invitrogen, paraformaldehyde (30528954) from Acros Organics (Geel, Belgium), Hoechst 33342 (H3570) from Invitrogen. The high-content assays were run in 1536-well plates (29326) supplied by Aurora Biotechnology (Poway, Calif.) and utilized aluminum plate seals (T592100) from E&K Scientific (Santa Clara, Calif.). […]
Chain of neurotensin receptor 1 (NTR1) (P30989 whole entry, species assumed): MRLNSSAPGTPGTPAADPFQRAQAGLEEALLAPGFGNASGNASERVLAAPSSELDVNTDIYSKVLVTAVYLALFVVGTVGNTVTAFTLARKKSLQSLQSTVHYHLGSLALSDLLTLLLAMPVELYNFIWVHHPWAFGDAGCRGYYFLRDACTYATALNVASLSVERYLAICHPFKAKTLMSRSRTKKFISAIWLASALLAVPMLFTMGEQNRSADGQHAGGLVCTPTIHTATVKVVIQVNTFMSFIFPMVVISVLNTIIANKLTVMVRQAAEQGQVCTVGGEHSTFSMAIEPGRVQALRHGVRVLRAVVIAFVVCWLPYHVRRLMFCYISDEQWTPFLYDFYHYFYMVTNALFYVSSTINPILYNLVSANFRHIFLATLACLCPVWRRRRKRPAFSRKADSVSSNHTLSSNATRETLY
The high-content imaging based NTR1 primary screen in 1536-well format was utilized to assay the MLSMR library of chemical entities in the following manner. On day one, 4 uL of a cell suspension containing 350,000 NTR1-U2OS cells per mL is added to each well of a 1536-well assay plate. Cells are plated in MEM medium containing 2.5% Fetal Bovine Serum, 1% Penicillin/Streptomycin solution, 1% L-Glutamine, 400 ug/mL G418, and 200 ug/mL Zeocin. The assay plates are then incubated overnight at 37° C., under 5% CO2. Following the overnight incubation, a volume of 60 nL of the compounds at 2 mM in DMSO (final 20 μM, 1% DMSO) was transferred to columns 5-48 of the assay plates using a LabCyte Echo Liquid Handler. Next, 60 nL of DMSO were dispensed to columns 1-4, which served as the positive and neutral control wells. […] The assay plates were centrifuged on an Eppendorf 5810 centrifuge at 1000 rpm for 1 min to ensure even liquid levels in the wells of the assay plates. The assay plates were then returned to the incubator for 1 hour. Following the hour-long incubation at 37° C., the cells in each well were fixed with 4 uL of 6% paraformaldehyde added with a Multidrop Combi. The assay plates were centrifuged as before and incubated at room temperature for 1 hour. On the Kalypsys, plates were then aspirated down to 2.5 uL per well and washed twice with 11 uL per well of DPBS, followed by a final aspiration to 2.5 uL per well. On the Combi dispenser, 5 uL of 5 ug/mL Hoechst 33342 diluted in DPBS was added to each well of assay plates. The plates were again centrifuged as previously described, sealed, and incubated for at least 1 hour prior to being loaded on a PerkinElmer Opera QEHS.
Image acquisition was performed with a 45 plate capacity loader/stacker and the following settings: 40×0.6 NA air objective, acquisition camera set to 2-by-2 binning for an image size of 688 by 512 pixels, beta-arrestin-GFP acquired using 488 nm laser excitation and 540/75 nm emission filters, DAPI (nuclei) using 365 nm Xenon lamp excitation and 450/50 nm emission filters, 3 fields per well. Image analysis was performed using the Acapella Spot Detection Algorithm. For analysis settings and the metrics employed in the data analyses, please refer to supplemental information.
Compounds that were successfully confirmed in quadruplicate at 20 uM were then run in dose response in the primary assay. As with the single concentration hit confirmation, the assay was performed in an identical manner as the primary screen with the following modifications. […]
One may read the EC50 as the concentration needed to bring the measured effect to its halfway point. As for `COc1ccccc1C1CCN(c2nc(C3(C)CC3)nc3ccc(N(C)CCO)cc23)CC1` [Example 22, 2-{[4-[4-(2-methoxy-phenyl)-piperidin-1-yl]-2-(1-methyl-cyclopropyl)-quinazolin-6-yl]-methyl-amino}-ethanol], the 50% effective concentration (EC50) was less than 0.5 µM. Then `COc1ccccc1C1CCN(c2nc(C3(C)CC3)nc3ccc(N(C)CCN(C)C)cc23)CC1` [Example 23, N-[4-[4-(2-methoxy-phenyl)-piperidin-1-yl]-2-(1-methyl-cyclopropyl)-quinazolin-6-yl]-N,N′,N′-trimethyl-ethane-1,2-diamine], with more than 10 µM; and `COc1ccccc1C1CCN(c2nc(C3(C)CC3)nc3ccc(N(C)CCN4CCCC4)cc23)CC1` [Example 24, [4-[4-(2-methoxy-phenyl)-piperidin-1-yl]-2-(1-methyl-cyclopropyl)-quinazolin-6-yl]-methyl-(2-pyrrolidin-1-yl-ethyl)-amine], with 2 to 10 µM; and `CN(C)c1ccccc1C1CCN(c2nc(C3(C)CC3)nc3ccc(N(C)CCO)cc23)CC1` [Example 25, 2-{[4-[4-(2-dimethylamino-phenyl)-piperidin-1-yl]-2-(1-methyl-cyclopropyl)-quinazolin-6-yl]-methyl-amino}-ethanol], with 2 to 10 µM. As to `COCCN(C)c1ccc2nc(C3(C)CC3)nc(N3CCC(c4ccccc4N(C)C)CC3)c2c1` [Example 26, [4-[4-(2-dimethylamino-phenyl)-piperidin-1-yl]-2-(1-methyl-cyclopropyl)-quinazolin-6-yl]-(2-methoxy-ethyl)-methyl-amine], the EC50 was more than 10 µM. For `CN(C)c1ccccc1C1CCN(c2nc(C3(C)CC3)nc3ccc(N(C)CCN4CCOCC4)cc23)CC1` [Example 27], the EC50 was more than 10 µM. As for `CN(C)CCN(C)c1ccc2nc(C3(C)CC3)nc(N3CCC(c4ccccc4N(C)C)CC3)c2c1` [Example 28, N-[4-[4-(2-dimethylamino-phenyl)-piperidin-1-yl]-2-(1-methyl-cyclopropyl)-quinazolin-6-yl]-N,N′,N′-trimethyl-ethane-1,2-diamine], the EC50 was more than 10 µM.

With `CN(C)c1ccccc1C1CCN(c2nc(C3(C)CC3)nc3ccc(N(C)CCN4CCCC4)cc23)CC1` [Example 29, [4-[4-(2-dimethylamino-phenyl)-piperidin-1-yl]-2-(1-methyl-cyclopropyl)-quinazolin-6-yl]-methyl-(2-pyrrolidin-1-yl-ethyl)-amine], the EC50 is more than 10 µM. The value for `CN(CCO)c1ccc2nc(C3(C)CC3)nc(N3CCC(c4ccccc4N4CCC4)CC3)c2c1` [Example 30, 2-{[4-[4-(2-azetidin-1-yl-phenyl)-piperidin-1-yl]-2-(1-methyl-cyclopropyl)-quinazolin-6-yl]-methyl-amino}-ethanol] was 2 to 10 µM. Turning to `COCCN(C)c1ccc2nc(C3(C)CC3)nc(N3CCC(c4ccccc4N4CCC4)CC3)c2c1` [Example 31, [4-[4-(2-azetidin-1-yl-phenyl)-piperidin-1-yl]-2-(1-methyl-cyclopropyl)-quinazolin-6-yl]-(2-methoxy-ethyl)-methyl-amine], the EC50 is more than 10 µM.

As to `CN(CCN1CCOCC1)c1ccc2nc(C3(C)CC3)nc(N3CCC(c4ccccc4N4CCC4)CC3)c2c1` [Example 32, [4-[4-(2-azetidin-1-yl-phenyl)-piperidin-1-yl]-2-(1-methyl-cyclopropyl)-quinazolin-6-yl]-methyl-(2-morpholin-4-yl-ethyl)-amine], the EC50 is more than 10 µM. The value for `COCCN(C)c1ccc2nc(C3(C)CC3)nc(N3CCC(c4ccccc4OC)CC3)c2c1` [Example 33, N-(2-methoxyethyl)-4-(4-(2-methoxyphenyl)piperidin-1-yl)-N-methyl-2-(1-methylcyclopropyl)quinazolin-6-amine] was 2 to 10 µM; that for `COc1ccccc1C1CCN(c2nc(C3(C)CC3)nc3ccc(N(C)CCN4CCOCC4)cc23)CC1` [Example 34, 4-(4-(2-methoxyphenyl)piperidin-1-yl)-N-methyl-2-(1-methylcyclopropyl)-N-(2-morpholinoethyl) quinazolin-6-amine] was 2 to 10 µM.
